According to US8685977B2, “Chemical compounds” (Pfizer Limited, priority 2010, dated 2014):

Target: T1, Nav1.7 (or SCN9A) channel (Homo sapiens, UniProt Q15858)
T1 construct: expressed in transfected cells
Test: Nav1.7 PatchXpress 7000 automated electrophysiology assay (HEK cells stably expressing hSCN9A)
Assay type: cell-based
Details: voltage-clamped at V1/2 of inactivation, read-out: Nav1.7 EIC50
How it was run: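 Automated whole-cell clamp (PatchXpress) of HEK cells stably expressing hSCN9A, at 22-24 °C, in extracellular buffer at pH 7.4. Cells were held at the measured V1/2 of inactivation, then stepped to 0 mV for 20 ms. Single-concentration % inhibition gave EIC50 = concentration × (100 − %inhibition)/%inhibition, excluding <20% or >80%.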

T1 sequence (Q15858 whole entry): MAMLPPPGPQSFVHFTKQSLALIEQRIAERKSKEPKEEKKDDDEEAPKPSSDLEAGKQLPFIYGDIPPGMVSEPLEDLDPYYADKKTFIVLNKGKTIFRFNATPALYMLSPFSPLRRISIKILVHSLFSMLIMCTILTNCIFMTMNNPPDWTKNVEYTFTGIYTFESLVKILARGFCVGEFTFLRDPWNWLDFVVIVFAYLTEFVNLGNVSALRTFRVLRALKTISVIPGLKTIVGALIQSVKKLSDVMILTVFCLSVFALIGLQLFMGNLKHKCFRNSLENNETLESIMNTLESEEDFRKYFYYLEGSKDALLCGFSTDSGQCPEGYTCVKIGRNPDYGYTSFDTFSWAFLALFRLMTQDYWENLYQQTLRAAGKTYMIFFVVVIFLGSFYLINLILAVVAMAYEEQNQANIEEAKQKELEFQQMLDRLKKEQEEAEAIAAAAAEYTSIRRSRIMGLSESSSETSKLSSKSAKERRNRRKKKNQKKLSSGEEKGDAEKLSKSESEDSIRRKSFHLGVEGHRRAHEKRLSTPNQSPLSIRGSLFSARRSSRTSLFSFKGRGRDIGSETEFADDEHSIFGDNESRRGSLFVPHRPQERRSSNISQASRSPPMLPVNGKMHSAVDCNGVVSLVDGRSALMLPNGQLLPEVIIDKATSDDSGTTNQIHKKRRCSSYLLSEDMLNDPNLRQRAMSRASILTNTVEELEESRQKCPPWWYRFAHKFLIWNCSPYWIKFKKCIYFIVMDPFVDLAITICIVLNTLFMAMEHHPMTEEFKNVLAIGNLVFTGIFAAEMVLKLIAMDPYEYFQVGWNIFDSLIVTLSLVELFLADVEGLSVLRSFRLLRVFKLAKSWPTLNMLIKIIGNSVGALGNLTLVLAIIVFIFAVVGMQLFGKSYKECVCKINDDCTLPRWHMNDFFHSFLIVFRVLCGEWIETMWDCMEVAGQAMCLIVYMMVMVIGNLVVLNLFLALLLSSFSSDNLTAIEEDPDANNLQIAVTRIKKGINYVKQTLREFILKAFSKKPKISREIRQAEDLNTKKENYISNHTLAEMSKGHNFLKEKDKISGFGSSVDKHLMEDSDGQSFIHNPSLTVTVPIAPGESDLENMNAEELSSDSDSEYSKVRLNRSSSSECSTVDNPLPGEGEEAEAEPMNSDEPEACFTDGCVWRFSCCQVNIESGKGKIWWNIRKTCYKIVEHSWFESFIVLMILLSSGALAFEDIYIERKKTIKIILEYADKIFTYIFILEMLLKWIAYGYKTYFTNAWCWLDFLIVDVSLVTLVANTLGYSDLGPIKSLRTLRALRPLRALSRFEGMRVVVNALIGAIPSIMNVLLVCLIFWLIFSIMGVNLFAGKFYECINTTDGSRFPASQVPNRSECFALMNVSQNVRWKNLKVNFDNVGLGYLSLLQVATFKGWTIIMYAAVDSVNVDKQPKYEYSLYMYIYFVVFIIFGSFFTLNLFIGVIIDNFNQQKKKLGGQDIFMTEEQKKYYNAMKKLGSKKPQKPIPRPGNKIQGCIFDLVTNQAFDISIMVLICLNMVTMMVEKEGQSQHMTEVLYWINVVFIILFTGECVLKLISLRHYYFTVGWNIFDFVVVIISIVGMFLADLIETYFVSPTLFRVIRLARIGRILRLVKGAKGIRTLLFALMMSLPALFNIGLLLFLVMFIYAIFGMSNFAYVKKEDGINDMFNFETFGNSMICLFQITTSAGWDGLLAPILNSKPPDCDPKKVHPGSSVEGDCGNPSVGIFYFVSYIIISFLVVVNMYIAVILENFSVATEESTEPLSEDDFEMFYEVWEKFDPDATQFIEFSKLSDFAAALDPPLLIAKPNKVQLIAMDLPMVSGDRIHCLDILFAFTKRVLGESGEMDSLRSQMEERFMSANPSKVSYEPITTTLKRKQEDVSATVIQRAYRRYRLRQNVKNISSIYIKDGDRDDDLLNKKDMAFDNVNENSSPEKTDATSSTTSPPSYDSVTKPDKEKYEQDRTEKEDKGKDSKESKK

| Structure (SMILES) | IC50 |
| --- | --- |
| Cc1cccc(Oc2ccc(C(=O)NS(C)(=O)=O)cc2)c1 [Example 254, 4-(3-methylphenoxy)-N-(methylsulfonyl)benzamide] | 7500 nM |
| COc1cccc(Oc2ccc(C(=O)NS(C)(=O)=O)cc2Cl)c1 [Example 255, 3-chloro-4-(3-methoxyphenoxy)-N-(methylsulfonyl)benzamide] | 1400 nM |
| Cc1ccccc1Oc1ccc(C(=O)NS(C)(=O)=O)cc1Cl [Example 256, 3-chloro-4-(2-methylphenoxy)-N-(methylsulfonyl)benzamide] | 2800 nM |
| COc1ccc(Oc2ccc(C(=O)NS(C)(=O)=O)cc2Cl)cc1 [Example 257, 3-chloro-4-(4-methoxyphenoxy)-N-(methylsulfonyl)benzamide] | 1100 nM |
| CS(=O)(=O)NC(=O)c1ccc(Oc2cccc3ccccc23)c(Cl)c1 [Example 258, 3-chloro-N-(methylsulfonyl)-4-(1-naphthyloxy)benzamide] | 2100 nM |
| CS(=O)(=O)NC(=O)c1ccc(Oc2cccc(F)c2)c(Cl)c1 [Example 262, 3-chloro-4-(3-fluorophenoxy)-N-(methylsulfonyl)benzamide] | 1100 nM |
| CS(=O)(=O)NC(=O)c1ccc(Oc2cccc(C#N)c2)c(Cl)c1 [Example 264, 3-chloro-4-(3-cyanophenoxy)-N-(methylsulfonyl)benzamide] | 7000 nM |
| CCOc1ccc(Oc2ccc(C(=O)NS(C)(=O)=O)cc2C#N)cc1 [Example 265, 3-cyano-4-(4-ethoxyphenoxy)-N-(methylsulfonyl)benzamide] | 4800 nM |
| CS(=O)(=O)NC(=O)c1ccc(Oc2cccc(C(F)(F)F)c2)c(Cl)c1 [Example 266, 3-chloro-N-(methylsulfonyl)-4-[3-(trifluoromethyl)phenoxy]benzamide] | 270 nM |
| CS(=O)(=O)NC(=O)c1ccc(Oc2ccccc2-c2ccccc2)cc1 [Example 268, 4-(biphenyl-2-yloxy)-N-(methylsulfonyl)benzamide] | 5300 nM |
| CS(=O)(=O)NC(=O)c1ccc(Oc2ccc3ccccc3c2)c(C#N)c1 [Example 269, 3-cyano-N-(methylsulfonyl)-4-(2-naphthyloxy)benzamide] | 1700 nM |
| CS(=O)(=O)NC(=O)c1ccc(Oc2ccc(C#N)cc2)c(Cl)c1 [Example 270, 3-chloro-4-(4-cyanophenoxy)-N-(methylsulfonyl)benzamide] | 3700 nM |
| CS(=O)(=O)NC(=O)c1ccc(Oc2cccc(-c3ccccc3)c2)c(C#N)c1 [Example 272, 4-(biphenyl-3-yloxy)-3-cyano-N-(methylsulfonyl)benzamide] | 710 nM |
| COc1cccc(Oc2ccc(C(=O)NS(C)(=O)=O)cc2C#N)c1 [Example 277, 3-cyano-4-(3-methoxyphenoxy)-N-(methylsulfonyl)benzamide] | 5600 nM |
| CS(=O)(=O)NC(=O)c1ccc(Oc2ccccc2C(F)(F)F)c(Cl)c1 [Example 278, 3-chloro-N-(methylsulfonyl)-4-[2-(trifluoromethyl)phenoxy]benzamide] | 6600 nM |
| CS(=O)(=O)NC(=O)c1ccc(Oc2ccc(-c3ccccc3)cc2)c(C#N)c1 [Example 280, 4-(biphenyl-4-yloxy)-3-cyano-N-(methylsulfonyl)benzamide] | 430 nM |
| CCOc1cccc(Oc2ccc(C(=O)NS(C)(=O)=O)cc2C#N)c1 [Example 281, 3-cyano-4-(3-ethoxyphenoxy)-N-(methylsulfonyl)benzamide] | 4300 nM |
| CS(=O)(=O)NC(=O)c1ccc(Oc2ccccc2F)c(Cl)c1 [Example 282, 3-chloro-4-(2-fluorophenoxy)-N-(methylsulfonyl)benzamide] | 1200 nM |

| Structure (SMILES) | IC50 |
| --- | --- |
| CS(=O)(=O)NC(=O)c1ccc(Oc2cccc3ccccc23)c(C#N)c1 [Example 283, 3-cyano-N-(methylsulfonyl)-4-(1-naphthyloxy)benzamide] | 8600 nM |
| CS(=O)(=O)NC(=O)c1ccc(Oc2cccc(F)c2)c(C#N)c1 [Example 284, 3-cyano-4-(3-fluorophenoxy)-N-(methylsulfonyl)benzamide] | 8700 nM |
| CS(=O)(=O)NC(=O)c1cc(Cl)c(Oc2ccc3ccccc3c2)cc1F [Example 285, 5-chloro-2-fluoro-N-(methylsulfonyl)-4-(2-naphthyloxy)benzamide] | 57 nM |
| CS(=O)(=O)NC(=O)c1cc(Cl)c(Oc2ccc(C#N)cc2)cc1F [Example 286, 5-chloro-4-(4-cyanophenoxy)-2-fluoro-N-(methylsulfonyl)benzamide] | 3400 nM |
| CS(=O)(=O)NC(=O)c1cc(Cl)c(Oc2cccc3ccccc23)cc1F [Example 287, 5-chloro-2-fluoro-N-(methylsulfonyl)-4-(1-naphthyloxy)benzamide] | 2100 nM |
| CCOc1ccccc1Oc1cc(F)c(C(=O)NS(C)(=O)=O)cc1Cl [Example 288, 5-chloro-4-(2-ethoxyphenoxy)-2-fluoro-N-(methylsulfonyl)benzamide] | 2000 nM |
| COc1cccc(Oc2cc(F)c(C(=O)NS(C)(=O)=O)cc2Cl)c1 [Example 289, 5-chloro-2-fluoro-4-(3-methoxyphenoxy)-N-(methylsulfonyl)benzamide] | 1200 nM |
| Cc1ccc(Oc2cc(F)c(C(=O)NS(C)(=O)=O)cc2Cl)cc1 [Example 291, 5-chloro-2-fluoro-4-(4-methylphenoxy)-N-(methylsulfonyl)benzamide] | 420 nM |
| CS(=O)(=O)NC(=O)c1cc(Cl)c(Oc2cccc(Cl)c2)cc1F [Example 292, 5-chloro-4-(3-chlorophenoxy)-2-fluoro-N-(methylsulfonyl)benzamide] | 620 nM |
| CS(=O)(=O)NC(=O)c1cc(Cl)c(Oc2ccccc2C#N)cc1F [Example 293, 5-chloro-4-(2-cyanophenoxy)-2-fluoro-N-(methylsulfonyl)benzamide] | > 3000 nM |
| CCOc1ccc(Oc2cc(F)c(C(=O)NS(C)(=O)=O)cc2Cl)cc1 [Example 294, 5-chloro-4-(4-ethoxyphenoxy)-2-fluoro-N-(methylsulfonyl)benzamide] | 160 nM |
| CS(=O)(=O)NC(=O)c1cc(Cl)c(Oc2ccc(Cl)cc2)cc1F [Example 295, 5-chloro-4-(4-chlorophenoxy)-2-fluoro-N-(methylsulfonyl)benzamide] | 97 nM |
| CS(=O)(=O)NC(=O)c1cc(Cl)c(Oc2ccc(F)cc2)cc1F [Example 296, 5-chloro-2-fluoro-4-(4-fluorophenoxy)-N-(methylsulfonyl)benzamide] | 390 nM |
| Cc1ccccc1Oc1cc(F)c(C(=O)NS(C)(=O)=O)cc1Cl [Example 297, 5-chloro-2-fluoro-4-(2-methylphenoxy)-N-(methylsulfonyl)benzamide] | 2300 nM |
| CCOc1cccc(Oc2cc(F)c(C(=O)NS(C)(=O)=O)cc2Cl)c1 [Example 298, 5-chloro-4-(3-ethoxyphenoxy)-2-fluoro-N-(methylsulfonyl)benzamide] | 200 nM |
| Cn1nccc1-c1cc(Cl)ccc1Oc1ccc(C(=O)NS(C)(=O)=O)cc1C#N [Example 303, 4-[4-chloro-2-(1-methyl-1H-pyrazol-5-yl)phenoxy]-3-cyano-N-(methylsulfonyl)benzamide] | > 3000 nM |
| Cc1ccc(Oc2ccc(C(=O)NS(C)(=O)=O)cc2)cc1 [Example 304, 4-(4-methylphenoxy)-N-(methylsulfonyl)benzamide] | 8700 nM |
| CCS(=O)(=O)NC(=O)c1ccc(Oc2ccc(F)cc2)cc1 [Example 305, N-(ethylsulfonyl)-4-(4-fluorophenoxy)benzamide] | 6400 nM |
